# Article PMC10746103, “Development of a HPLC-MS/MS Method to Assess the Pharmacokinetics and Tumour Distribution of the Dimethylarginine Dimethylaminohydrolase 1 Inhibitors ZST316 and L-257 in a Xenograft Model of Triple-Negative Breast Cancer in Mice” (Molecules, 2023)
# “And” between values parts separate entries of the source, which are not always exact repeats. Identical values can stand only once. “Also recorded” adds a separate entry of the source. Like-named read-outs stand apart in the source and are kept apart here.
# Legend:
# [1] = Plasma pharmacokinetics of ZST316 and L-257 after intraperitoneal ZST316 in MDA-MB-231 xenograft mice (HPLC-MS/MS); type: in vivo, SCID mice
# Protocol: (§1) Six-week-old female severe combined immunodeficiency disease (SCID) mice (n = 24; Charles River Laboratories Italia S.r.L., Calco, Lecco, Italy), were housed under rigorous standards and handled under pathogen-free conditions in the Animal Care Facilities of the Mario Negri Institute for Pharmacological Research (Milan, Italy).
# (§2) Two ×10^6 (in 10 μL) MDA-MB-231 TNBC cells were transplanted into the mammary fat pad. Tumour growth was regularly monitored with a calliper and treatment with ZST316 was given when the tumour volume reached 400–500 mm^3. Mice received either a single dose (acute treatment) or a daily dose of ZST316 30 mg/Kg intraperitoneally for five days (chronic treatment).
# (§3) Plasma and tumour tissue (n = 3 mice/each time point) were sampled at 1, 8 and 24 h after treatment (on day 5 for the chronic treatment). To collect plasma, mice were anesthetized by isoflurane, the blood was drained from the retro-orbital plexus into heparinised tubes and centrifuged for 10 min at 4000× g at 4 °C. Tumours were collected and immediately frozen. Plasma and tumour samples were stored at −20 °C until analysis.
# To assay ZST316 and L-257, 10 μL of IS (ZST152 WS: 500 ng/mL) were added to 100 μL of study plasma samples, standards, and QCs in a polypropylene tube. The samples were then added with 10 μL of NH4COOH 50 mM, mixed and added with 400 μL CH3OH:0.1% HCOOH, vortex mixed again and centrifuged at 13,200 rpm for 10 min at 4 °C. The supernatant was transferred to a 1.5 mL Eppendorf tube, dried under nitrogen flow and reconstituted with 100 μL of mobile phase (MP) A:B (1:1, v/v). Finally, the samples were centrifuged at 13,200 rpm for 10 min at 4 °C and the supernatant transferred into vials for HPLC-MS/MS analysis.
# (§4) Reversed-phase chromatography was performed under gradient conditions with separation on a HILIC column, C18, 3 μm, 100 A, 2.1 × 150 mm, Waters (Milford, MA, USA), coupled with a 3 μm, 3.9 × 5.0 mm guard column of the same material at the flow rate of 0.2 mL/min. Gradient features were: 10% mobile phase (MP) A (NH4HCO2 10 mM, 10% CH3CN, 0.1% HCOOH) and 90% MP B (CH3CN, 0.1% HCOOH) as initial constant condition; then to 90% MP A in 6 min and constant condition for 1.5 min. Return to start condition in 0.5 min and conditioning for 5.5 min. Total run time: 13.5 min. Analyte detection and quantification were performed using tandem mass spectrometry (MS/MS) operating in positive ionization mode as previously reported for ZST316 and ZST152 [31].
# [2] = Tumour distribution of ZST316 and L-257 after intraperitoneal ZST316 in MDA-MB-231 TNBC xenograft (HPLC-MS/MS); type: in vivo, SCID mice; details: for time intra-tumour concentration remained above the IC50 and Ki values for DDAH1 inhibition: estimated
# Protocol: as §1, §2, §3
# Control MDA-MB-231 TNBC cell tumours were homogenized with NH4COOH 50 mM (1:4, w:v). The homogenate (90 μL) was spiked with 5 μL of ZST316 and L-257 working solutions prepared in the range of 100–10,000 ng/mL generating seven tumour calibration standards in the range 25–5000 ng/g. The calibration curve included also a blank and a zero blank standard plasma sample (processed with IS). To prepare QC samples, 90 μL of the homogenate was mixed with an appropriate amount of QC working solutions to obtain QC plasma samples at the nominal concentration of 75, 375, and 1250 ng/g.
# The procedure was similar to that described for plasma in Section 3.3.2.
# as §4
# [3] = Stability of ZST316 and L-257 in frozen plasma; type: in vitro ADME, mice; details: for Mean found value, Stability −20 °C / Accuracy (%), Stability −20 °C: plasma QC, one month at −20 °C; for Mean found value, Stability −20 °C: n=3; for Accuracy (%), Stability −20 °C: percent of nominal
# Protocol: The stability of ZST316 and L-257 in plasma was assessed by analysing QC samples containing both compounds after prolonged storage in the same conditions of the study samples.
# Stability was determined by analysing 3 QCs per concentration level immediately after the preparation, and 3 QCs per concentration level after one month of storage at −20 °C. The analytes were considered stable at each QC concentration when the freshly prepared samples and the stability test samples differed by no more than 15% from the nominal concentrations.
# [4] = Tolerability of chronic intraperitoneal ZST316 treatment; type: in vivo; details: ZST316 30 mg/Kg i.p. daily for five days
# Protocol: as §2
# DDAH1 = details: cited from earlier work
# [5] = parameters: method as in PMID 35164277; details: four-week-old FVB mice; oral, intravenous and intraperitoneal administration; cited from earlier work
# [6] = acute (single dose) ZST316 30 mg/Kg i.p., 1 h
# [7] = acute ZST316 30 mg/Kg i.p., 1 h, 30 mg/kg
# [8] = acute ZST316 30 mg/Kg i.p., 8 h, 30 mg/kg
# [9] = acute ZST316 30 mg/Kg i.p., 8 h, n=3, 30 mg/kg
# [10] = acute ZST316 30 mg/Kg i.p., 24 h, 30 mg/kg
# [11] = acute ZST316 30 mg/Kg i.p., approximately estimated due to limited time points
# [12] = chronic (five-day) ZST316 30 mg/Kg i.p. daily, 1 h
# [13] = chronic (five-day) ZST316 30 mg/Kg i.p. daily, 24 h
# [14] = chronic ZST316 30 mg/Kg i.p. daily
# [15] = chronic ZST316 30 mg/Kg i.p. daily, day 5, 1 h, 30 mg/kg
# [16] = chronic ZST316 30 mg/Kg i.p. daily, day 5, 8 h, 30 mg/kg
# [17] = chronic ZST316 30 mg/Kg i.p. daily, day 5, 8 h, n=3, 30 mg/kg
# [18] = chronic ZST316 30 mg/Kg i.p. daily, day 5, 24 h, 30 mg/kg
# [19] = chronic ZST316 30 mg/Kg i.p. daily, approximately estimated due to limited time points
# [20] = range over acute and chronic treatment
structure (smiles),measurement,setting,value
COCCNC(N)=NCCC[C@H](N)C(=O)NS(C)(=O)=O [ZST316],accumulation in plasma and tumour during chronic treatment,"[1]; ZST316 30 mg/Kg i.p. daily for five days, day 5 vs day 1, 30 mg/kg",without accumulation; also recorded: No accumulation
same,mean plasma concentration,[1]; [6],2.79 µg/mL
same,mean plasma concentration,"[1]; acute (single dose) ZST316 30 mg/Kg i.p., 24 h, 30 mg/kg",0.05 µg/mL and 0.04 µg/mL
same,Cmax,[1]; acute ZST316 30 mg/Kg i.p.,9.03 µM
same,Cmax plasma,[1]; acute ZST316 30 mg/Kg i.p.,2790 ng/mL
same,Plasma AUC1–24 h,[1]; acute ZST316 30 mg/Kg i.p.,0.050
same,Plasma AUC1–24 h,[1]; acute ZST316 30 mg/Kg i.p. (day 1),15.3 µg·h/mL
same,"plasma concentration, individual mice",[1]; [7],3000 ng/mL and 2150 ng/mL and 3210 ng/mL and 9.70 µM and 6.95 µM and 10.38 µM
same,"plasma concentration, individual mice",[1]; [8],162 ng/mL and 147 ng/mL and 0.38 µM and 0.52 µM and 0.48 µM and 119 ng/mL
same,mean plasma concentration,[1]; [9],143 ng/mL and 0.46 μM
same,"plasma concentration, individual mice",[1]; [10],64.2 ng/mL and 53.7 ng/mL and 25 ng/mL and 0.21 µM and 0.17 µM and 0.08 µM
same,half-life plasma,[1]; [11],4.4 h
same,mean plasma concentration,[1]; [12],2.22 µg/mL
same,mean plasma concentration,[1]; [13],0.12 µg/mL
same,Cmax,[1]; [14],7.18 µM
same,Cmax plasma,[1]; [14],2220 ng/mL
same,Plasma AUC1–24 h,[1]; [14],0.040
same,Plasma AUC1–24 h,[1]; chronic ZST316 30 mg/Kg i.p. daily (day 5),12.4 µg·h/mL
same,"plasma concentration, individual mice",[1]; [15],2440 ng/mL and 2030 ng/mL and 2200 ng/mL and 7.89 µM and 6.57 µM and 7.12 µM
same,"plasma concentration, individual mice",[1]; [16],81.7 ng/mL and 54.7 ng/mL and 41.8 ng/mL and 0.26 µM and 0.18 µM and 0.14 µM
same,mean plasma concentration,[1]; [17],59.4 ng/mL and 0.19 μM
same,"plasma concentration, individual mice",[1]; [18],101 ng/mL and 173 ng/mL and 86.3 ng/mL and 0.33 µM and 0.56 µM and 0.28 µM
same,half-life plasma,[1]; [19],7.1 h
same,half-life plasma,[1]; [20],4.4 to 7.1 h
same,measured concentration in unknown study plasma sample (Figure 2),"[1]; representative chromatogram, sample taken at 1 h after acute treatment (b8)",2200 ng/mL
same,mean intra-tumour concentration,[2]; [6],2.0 µg/g
same,mean intra-tumour concentration,"[2]; acute (single dose) ZST316 30 mg/Kg i.p., 24 h",0.04 µg/g
same,tumour AUC,[2]; acute ZST316 30 mg/Kg i.p.,11.4 µg·h/g
same,Cmax tumour,"[2]; acute ZST316 30 mg/Kg i.p., 30 mg/kg",2.00 μg/g and 6.47 μM
same,"tumour concentration, individual mice",[2]; [7],2470 ng/g and 1210 ng/g and 2320 ng/g and 7.99 µM and 3.91 µM and 7.50 µM
same,"tumour concentration, individual mice",[2]; [8],109 ng/g and 173 ng/g and 0.48 µM and 0.35 µM and 0.56 µM and 149 ng/g
same,mean tumour concentration,[2]; [9],144 ng/g and 0.46 μM
same,"tumour concentration, individual mice",[2]; [10],37.3 ng/g and 32.2 ng/g and 49.0 ng/g and 0.12 µM and 0.10 µM and 0.16 µM
same,half-life tumour,[2]; [11],4.5 h
same,time intra-tumour concentration remained above the IC50 and Ki values for DDAH1 inhibition,[2]; after acute ZST316 treatment,15.5 h
same,time intra-tumour concentration remained above the IC50 and Ki values for DDAH1 inhibition,[2]; after chronic ZST316 treatment,16.5 h
same,mean intra-tumour concentration,[2]; [12],2.09 µg/g
same,mean intra-tumour concentration,[2]; [13],0.06 µg/g
same,tumour AUC,[2]; [14],11.8 µg·h/g
same,"tumour concentration, individual mice",[2]; [15],2490 ng/g and 1750 ng/g and 2020 ng/g and 8.05 µM and 5.66 µM and 6.53 µM
same,"tumour concentration, individual mice",[2]; [16],110 ng/g and 146 ng/g and 0.39 µM and 0.36 µM and 0.47 µM and 120 ng/g
same,mean tumour concentration,[2]; [17],125 ng/g and 0.41 μM
same,mean tumour concentration,"[2]; chronic ZST316 30 mg/Kg i.p. daily, day 5, 24 h",57.0 ng/g
same,"tumour concentration, individual mice",[2]; [18],37.8 ng/g and 108 ng/g and 25.2 ng/g and 0.12 µM and 0.35 µM and 0.08 µM
same,mean tumour concentration,"[2]; chronic ZST316 30 mg/Kg i.p. daily, day 5, 24 h, n=3",0.18 µM
same,Cmax tumour,"[2]; chronic ZST316 30 mg/Kg i.p. daily, 30 mg/kg",2.09 μg/g and 6.76 μM
same,half-life tumour,[2]; [19],5.0 h
same,half-life tumour,[2]; [20],4.5 to 5.0 h
same,measured concentration in unknown study tumour sample (Figure 3),"[2]; representative chromatogram, sample taken at 24 h after acute treatment (b8)",37.3 ng/g
same,stability in frozen plasma,[3]; at least one month at −20 °C,stable
same,"Mean found value, Stability −20 °C",[3]; actual value 15.00 ng/mL,14.3 ng/mL
same,"Accuracy (%), Stability −20 °C",[3]; actual value 15.00 ng/mL,95.4%
same,"Mean found value, Stability −20 °C",[3]; actual value 75.00 ng/mL,72.4 ng/mL
same,"Accuracy (%), Stability −20 °C",[3]; actual value 75.00 ng/mL,96.5%
same,"Mean found value, Stability −20 °C",[3]; actual value 250.00 ng/mL,240.0 ng/mL
same,"Accuracy (%), Stability −20 °C",[3]; actual value 250.00 ng/mL,96.0%
same,tolerability / signs of toxicity,[4],"well tolerated, and no signs of toxicity were recorded"
same,Ki expressed as concentration,"DDAH1; equivalent of 261 nM, personal data",0.0803 µg/mL
same,Ki,DDAH1; original value,1000 nM
same,Ki,"DDAH1; revised using a more performant assay, personal data",261 nM
same,tolerability,[5],excellent tolerability
